17 molecules from patent US20260242352A1, “INHIBITION OF SHIP1 AS A THERAPEUTIC STRATEGY FOR THE TREATMENT OF ALZHEIMER'S DISEASE” (The Trustees of Indiana University, priority 2022, published 2026) can be followed below.

One may read the EC50 as the midpoint of the concentration-response curve. What is called IC50 is the concentration at which inhibition is half-maximal.

In one data set the test system is BV2 cells. Nature of the data set: pHrodo-myelin phagocytosis/cell health assay, BV2 cells. The note with it: Mus musculus, BV-2, compound 48 hrs, 60 μM to 3 nM, (n) in cell. The class given is cell-based. Here is the method: (§1) pHrodo-myelin phagocytosis/cell health assay with microglial cells. This 384-well plate high content imaging assay was developed to quantify phagocytosis and cell health simultaneously using either BV2 or HMC3 immortalized microglial cell lines or primary microglia isolated from mouse brain. Cells were cultured in DMEM GlutaMax media (ThermoFisher) containing 10% FBS and Pen-Strep in 37° C. 5% CO2 incubator.
(§2) Day 1: Cells were plated (Corning Falcon 384 well Optilux Black and clear bottom plates for imaging) with BV2 at 400 cells/45 μl/well, HMC3 at 600 cells/45 μl/well, or primary at 2000 cell/45 μl/well.
(§3) Day 2: Cells were treated with 10× serially diluted compounds in a dose range of 60 μM to 3 nM for 48 hrs at 37° C.
(§4) Day 3: Cells were seeded with pHrodo-myelin (for total 20 hrs) 24 hrs after starting compound treatment. The pHrodo-myelin stocks were at 1 mg/ml (protein equivalent) stored in −20° C. or −80° C. freezer. Stocks were thawed and diluted with culture media into 10× seeding solution (50 μg/ml) and added 5 μl/well to 384 well cell plate.
(§5) Day 4: Cell staining and imaging. Nuclear staining solution was prepared by adding 1 μl of 10 mg/mL Hoechst-33342 to every 1 ml culture media that will be added to cell plate at 20 μl/well. The final concentration of Hoechst-33342 to cells was about 2.5 μg/ml. Cell plates were incubated for >30 min at 37° C. before imaging. Cell plates were scanned with an ArrayScan automatic high content imaging system using a 10× objective lens, 4 fields/well collected. Three measurements were obtained 1) mean total phagocytosis spot intensity per cell, 2) total cell counts per well, and 3) mean average nuclear intensity per cell for cell health.
(§6) This 384-well plate high content imaging assay was developed to quantify phagocytosis and cell health simultaneously using either BV2 or HMC3 immortalized microglial cell lines or primary microglia isolated from mouse brain. Cells were cultured in DMEM GlutaMax media (ThermoFisher) containing 10% FBS and Pen-Strep in 37° C. 5% CO2 incubator. Day 1: Cells were plated (Corning Falcon 384 well Optilux Black and clear bottom plates for imaging) with BV2 at 400 cells/45 μl/well, HMC3 at 600 cells/45 μl/well, or primary at 2000 cell/45 μl/well. Day 2: Cells were treated with 10× serially diluted compounds in a dose range of 60 μM to 3 nM for 48 hrs at 37° C. Day 3: Cells were seeded with pHrodo-myelin (for total 20 hrs) 24 hrs after starting compound treatment. The pHrodo-myelin stocks were at 1 mg/ml (protein equivalent) stored in −20° C. or −80° C. freezer. Stocks were thawed and diluted with culture media into 10× seeding solution (50 μg/ml) and added 5 μl/well to 384 well cell plate. Day 4: Cell staining and imaging. Nuclear staining solution was prepared by adding 1 μl of 10 mg/mL Hoechst-33342 to every 1 ml culture media that will be added to cell plate at 20 μl/well. The final concentration of Hoechst-33342 to cells was about 2.5 μg/ml. Cell plates were incubated for >30 min at 37° C. before imaging. Cell plates were scanned with an ArrayScan automatic high content imaging system using a 10× objective lens, 4 fields/well collected. Three measurements were obtained 1) mean total phagocytosis spot intensity per cell, 2) total cell counts per well, and 3) mean average nuclear intensity per cell for cell health.

For another data set, the system named is HMC3 cells. Nature of the data set: pHrodo-myelin phagocytosis/cell health assay, HMC3 cells. Format: cell-based. The note with it: Homo sapiens, compound 48 hrs, 60 μM to 3 nM, (n) in cell. Here is the method: as §1, §2, §3, §4, §5, §6
For data set [1], the system named is phosphorylated and total AKT (pAKT/tAKT) in THP1 cells. The data set is described as follows: PhosphoAKT assay. Format: cell-based. The following applies: Homo sapiens, THP-1, 1.5 h, 90 minutes, pAKT (S473)/tAKT ratio, (n) in cell. Here is the method: PhosphoAKT assay. THP1 cells were treated with inhibitors for 90 minutes and then the levels of phosphorylated and total AKT (pAKT/tAKT) were detected using the Perkin Elmer Alpha SureFire Ultra Multiplex PhosphoAKT (S473) kit according to the manufacturer's directions. IC50 values were calculated by fitting the ratio of pATK/tAKT versus inhibitor concentration.
THP1 cells were treated with inhibitors for 90 minutes and then the levels of phosphorylated and total AKT (pAKT/tAKT) were detected using the Perkin Elmer Alpha SureFire Ultra Multiplex PhosphoAKT (S473) kit according to the manufacturer's directions. IC50 values were calculated by fitting the ratio of pATK/tAKT versus inhibitor concentration.

Data set [2] is described as follows: Pharmacokinetics in C57BL/6J mice. Format: in vivo, mouse. The note with it: dosed orally at 100 mg/kg. Here is the method:
Pharmacokinetics of Compound 9. Compound 9 was formulated at 5 mg/ml in HPMC (1%)/Tween 80 (0.25%)/purified water. Male C57BL/6J mice aged 8-12 weeks from The Jackson Laboratory were dosed (100 mg/kg, 20 ml/kg) via oral gavage. Plasma exposures at 0.5, 1, 2, 4, 6, 8, 12 hr and terminal at 24 hr were obtained. Brain exposures were obtained at terminal 4 and 24 hrs. The pharmacokinetics of Compound 10 was obtained in a similar manner to Compound 9. Compound was formulated in hydroxyethylcellulose (1%)/Tween 80 (0.25%)/antifoam (0.050%)/water (purified) at a concentration of 5 mg/ml. 100 mg/kg, 20 ml/kg was dosed via oral gavage. Plasma exposures at 0.25, 0.5, 1, 2, 8 hr and terminal at 24 hrs were obtained. Brain exposures were obtained at terminal 4 and 24 hrs. The results are depicted in FIG. 4. Pharmacokinetics of compound 10 in C57BL/6J Mice were obtained in a similar manner as compound 9. The results are depicted in FIG. 4.

A value given as a limit tells only on which side of the number the result lay.

On to `CC(C)(C)OC(=O)N1CCC(n2cc(-c3cncc(OCc4ccccc4Cl)c3)cn2)CC1` [Compound 1, tert-butyl 4-(4-{5-[(2-chlorophenyl)methoxy]pyridin-3-yl}-1H-pyrazol-1-yl)piperidine-1-carboxylate], for which the EC50 in the data set with BV2 cells was found to be 2330 nM; with HMC3 cells it was 15900 nM.
On the same counts, the results for `CC(C)(C)OC(=O)N1CCC(n2cc(-c3cncc(OCc4ccccc4F)c3)cn2)CC1` [Compound 2, tert-butyl 4-(4-(5-((2-fluorobenzyl)oxy)pyridin-3-yl)-1H-pyrazol-1-yl)piperidine-1-carboxylate] are 1560 nM and 1440 nM.
Regarding `Cc1ccccc1COc1cncc(-c2cnn(C3CCN(C(=O)OC(C)(C)C)CC3)c2)c1` [Compound 3, tert-butyl 4-(4-(5-((2-methylbenzyl)oxy)pyridin-3-yl)-1H-pyrazol-1-yl)piperidine-1-carboxylate], the concentration giving a half-maximal response (EC50) was 1030 nM in the data set on BV2 cells and 4190 nM with HMC3 cells. Further, in data set [1], the IC50 was 31.2 µM.
`CC(C)(C)OC(=O)N1CCC(n2cc(-c3cncc(OCc4ccccc4)c3)cn2)CC1` [Compound 4, tert-butyl 4-(4-(5-(benzyloxy)pyridin-3-yl)-1H-pyrazol-1-yl)piperidine-1-carboxylate]: the half-maximal effective concentration (EC50) turned out to be 3230 nM in the data set with BV2 cells and 2010 nM with HMC3 cells. Besides, in data set [1], the 50% inhibitory concentration (IC50) stood at 31.6 µM.
In the data set with HMC3 cells, `CC(C)(C)OC(=O)N1CCC(n2cc(-c3cncc(OCc4c(Cl)cccc4Cl)c3)cn2)CC1` [Compound 5, tert-butyl 4-(4-(5-((2,6-dichlorobenzyl)oxy)pyridin-3-yl)-1H-pyrazol-1-yl)piperidine-1-carboxylate] showed a half-maximal effective concentration (EC50) of 3720 nM. In other words, the single-digit micromolar range.
Consider `CC(C)(C)OC(=O)N1CCC(n2cc(-c3cncc(OCc4ccc(Br)cc4)c3)cn2)CC1` [Compound 7, tert-butyl 4-(4-(5-((4-bromobenzyl)oxy)pyridin-3-yl)-1H-pyrazol-1-yl)piperidine-1-carboxylate], for which the EC50 with BV2 cells was 756 nM; in the data set on HMC3 cells, 2430 nM.
Consider `Cl.Clc1ccccc1COc1cncc(-c2cnn(C3CCNCC3)c2)c1` [Compound 9, 3-((2-chlorobenzyl)oxy)-5-(1-(piperidin-4-yl)-1H-pyrazol-4-yl)pyridine hydrochloride], for which the results for the EC50 in the data set with BV2 cells and with HMC3 cells were 741 nM and 584 nM, respectively. This molecule also showed an exposure in brain in data set [2] of 0.5 µM. The molecule further returned an exposure in plasma in data set [2] of 5 µM.
With `Cl.Clc1ccc(COc2cncc(-c3cnn(C4CCNCC4)c3)c2)c(Cl)c1` [Compound 10, 3-((2,4-dichlorobenzyl)oxy)-5-(1-(piperidin-4-yl)-1H-pyrazol-4-yl)pyridine hydrochloride], the EC50 with BV2 cells amounted to 1750 nM; in the data set on HMC3 cells, 308 nM. Besides, the exposure in brain in data set [2] came out at 6 µM. In data set [2], the exposure in plasma is 2 µM. In addition, in data set [1], the IC50 worked out at 6.52 µM.
For `CC(C)(C)CCN1CCC(n2cc(-c3cncc(OCc4ccccc4Cl)c3)cn2)CC1` [Compound 15, 3-((2-chlorobenzyl)oxy)-5-(1-(1-(3,3-dimethylbutyl)piperidin-4-yl)-1H-pyrazol-4-yl)pyridine], the results for the EC50 in the data set on BV2 cells and with HMC3 cells were 2260 nM and 2100 nM, respectively. Further, the IC50 in data set [1] was determined as 17.9 µM.
Taken in the same sequence, the figures for `CC(C)(C)CC(=O)N1CCC(n2cc(-c3cncc(OCc4ccccc4Cl)c3)cn2)CC1` [Compound 16, 1-(4-(4-(5-((2-chlorobenzyl)oxy)pyridin-3-yl)-1H-pyrazol-1-yl)piperidin-1-yl)-3,3-dimethylbutan-1-one] were 1170 nM, 2070 nM and greater than 60 µM.
On to `C[C@H](Oc1cncc(-c2cnn(C3CCNCC3)c2)c1)c1ccccc1Cl` [Compound 21, (S)-3-(1-(2-chlorophenyl)ethoxy)-5-(1-(piperidin-4-yl)-1H-pyrazol-4-yl)pyridine], for which the EC50 with BV2 cells came to 395 nM; in the data set on HMC3 cells, 722 nM.
With `C[C@@H](Oc1cncc(-c2cnn(C3CCNCC3)c2)c1)c1ccc(Cl)cc1` [Compound 23, (R)-3-(1-(4-chlorophenyl)ethoxy)-5-(1-(piperidin-4-yl)-1H-pyrazol-4-yl)pyridine], the EC50 with BV2 cells amounted to 2600 nM; in the data set with HMC3 cells it was 145 nM. In addition, the IC50 in data set [1] turned out to be 4.06 µM.
With `Cc1ccccc1COc1cncc(-c2cnn(C3CCNCC3)c2)c1` [Compound 25, 3-[(2-Methylphenyl)methoxy]-5-[1-(piperidin-4-yl)-1H-pyrazol-4-yl]pyridine], in data set [1], the IC50 stood at 58.4 µM. In the data set with HMC3 cells, this molecule registered an EC50 of 1350 nM.
As for `Clc1ccccc1COc1cncc(-c2ccn(C3CCNCC3)n2)c1` [Compound 26, 3-((2-chlorobenzyl)oxy)-5-(1-(piperidin-4-yl)-1H-pyrazol-3-yl)pyridine], the IC50 in data set [1] is 7.72 µM.
The same measure, in the same setting: the result for `Clc1ccccc1COc1cncc(-n2ccc(C3CCNCC3)n2)c1` [Compound 27, 3-((2-chlorobenzyl)oxy)-5-(3-(piperidin-4-yl)-1H-pyrazol-1-yl)pyridine] reads greater than 60 µM; that for `Clc1ccccc1COc1cncc(-n2cc(C3CCNCC3)cn2)c1` [Compound 28, 3-((2-chlorobenzyl)oxy)-5-(4-(piperidin-4-yl)-1H-pyrazol-1-yl)pyridine], 5.57 µM.
As for `Clc1ccccc1COc1cccc(-c2cnn(C3CCNCC3)c2)c1` [Compound 29, 4-(4-(3-((2-chlorobenzyl)oxy)phenyl)-1H-pyrazol-1-yl)piperidine], in data set [1], the IC50 was 6.55 µM.
